Results as given in patent US10227357B2, “Compounds and methods for kinase modulation, and indications therefor” (Plexxikon Inc., priority 2012, dated 2019).

What was measured:
c-kit kinase = target: T1, c-kit kinase (Homo sapiens, UniProt P10721); test: c-Kit biochemical assay, AlphaScreen, 10 μM ATP; conditions: c-kit biochemical inhibitory activity; read-out: Biochemical activity (IC50 μM) Kit
T1 construct: The c-kit (or kinase domain thereof) is an active kinase in AlphaScreen; poly-Histidine tag (in-house protein only) (cleaved yes); host or cells: E. coli BL21(DE3)RIL, co-expressed with PTP1B
T1 sequence (P10721 26-976): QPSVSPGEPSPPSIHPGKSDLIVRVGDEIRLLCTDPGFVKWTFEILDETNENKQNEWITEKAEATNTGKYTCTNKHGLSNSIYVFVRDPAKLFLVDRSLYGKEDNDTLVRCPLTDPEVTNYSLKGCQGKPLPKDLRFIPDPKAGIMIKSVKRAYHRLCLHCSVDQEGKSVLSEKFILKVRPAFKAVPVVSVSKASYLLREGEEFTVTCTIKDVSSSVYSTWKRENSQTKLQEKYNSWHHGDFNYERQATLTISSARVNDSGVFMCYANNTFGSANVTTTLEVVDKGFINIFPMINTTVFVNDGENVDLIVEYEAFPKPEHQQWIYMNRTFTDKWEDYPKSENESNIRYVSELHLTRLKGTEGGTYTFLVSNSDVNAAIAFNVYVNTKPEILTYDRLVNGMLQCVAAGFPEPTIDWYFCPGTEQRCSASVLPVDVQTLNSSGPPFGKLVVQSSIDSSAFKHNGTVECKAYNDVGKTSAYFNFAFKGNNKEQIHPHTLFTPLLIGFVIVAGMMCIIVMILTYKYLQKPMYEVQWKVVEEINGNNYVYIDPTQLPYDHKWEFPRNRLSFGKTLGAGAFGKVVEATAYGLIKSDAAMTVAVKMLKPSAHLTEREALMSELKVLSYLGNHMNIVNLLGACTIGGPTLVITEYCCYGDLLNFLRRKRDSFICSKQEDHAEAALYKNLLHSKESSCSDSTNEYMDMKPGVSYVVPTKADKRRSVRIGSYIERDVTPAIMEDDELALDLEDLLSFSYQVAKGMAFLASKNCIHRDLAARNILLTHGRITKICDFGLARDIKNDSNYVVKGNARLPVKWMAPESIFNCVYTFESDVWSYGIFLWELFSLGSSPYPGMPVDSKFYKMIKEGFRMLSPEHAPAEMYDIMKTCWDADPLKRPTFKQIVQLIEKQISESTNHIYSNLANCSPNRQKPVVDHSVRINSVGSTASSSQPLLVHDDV
In short: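 His-tagged c-Kit expressed in E. coli with co-expressed PTP1B (dephosphorylated), tag removed; 0.1 ng per reaction with biotinylated-peptide substrate in 50 mM HEPES pH 7.2, 5 mM MgCl2, 5 mM MnCl2, 5% DMSO, 10 μM ATP, 1 h at room temperature. Phosphorylation detected by AlphaScreen (streptavidin donor, PY20 acceptor beads); IC50 from 8-point 1:3 dilution series.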

c-kit mutant D816V = target: T2, c-kit mutant D816V (Homo sapiens, UniProt P10721, D816V/DEL694-753); test: c-Kit mutant D816V biochemical assay, AlphaScreen; conditions: c-kit D816V biochemical inhibitory activity; read-out: Biochemical activity (IC50 μM) Kit D816V
T2 construct: residues 551-934, kinase insertion domain residues 694-753 deleted; 6x-histidine (N); made in house; host or cells: E. coli Arctic Express (DE3) RIL (Stratagene)
T2 sequence (P10721 with tags, fused parts or gaps DEL694-753/D816V): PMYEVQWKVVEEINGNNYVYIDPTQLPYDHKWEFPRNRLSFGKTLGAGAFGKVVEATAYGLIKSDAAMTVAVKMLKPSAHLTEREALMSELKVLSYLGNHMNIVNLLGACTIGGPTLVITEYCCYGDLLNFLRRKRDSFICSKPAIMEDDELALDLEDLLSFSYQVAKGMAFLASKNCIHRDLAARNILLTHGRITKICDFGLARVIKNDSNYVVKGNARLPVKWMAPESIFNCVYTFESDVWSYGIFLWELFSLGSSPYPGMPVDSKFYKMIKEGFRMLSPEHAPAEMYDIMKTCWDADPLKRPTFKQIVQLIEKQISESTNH
In short: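 Purified His-tagged c-Kit D816V (E. coli-expressed) assayed in 25 mM HEPES pH 7.2 with Mg/Mn, 5% DMSO and 10 μM ATP, 30 min at room temperature, 8-point 1:3 dilutions. Phosphorylation detected by AlphaScreen with streptavidin donor and PY20 acceptor beads; IC50 from signal versus concentration.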

Row | Structure (SMILES) | IC50 (c-kit kinase) [µM] | IC50 (c-kit mutant D816V) [µM]
1 | NC(=O)N1CCN(c2ncnc3[nH]c(-c4cccnc4)cc23)CC1 [P-0130, 4-[6-(3-pyridyl)-7H-pyrrolo[2,3-d]pyrimidin-4-yl]piperazine-1-carboxamide] | 10 to 200 | 1 to 10
2 | O=C(NCc1cncc(F)c1)N1CCN(c2ncnc3[nH]c(-c4ccc(F)cc4)cc23)CC1 [P-0131, 4-[6-(4-fluorophenyl)-7H-pyrrolo[2,3-d]pyrimidin-4-yl]-N-[(5-fluoro-3-pyridyl)methyl]piperazine-1-carboxamide] | 1 to 10 | 1 to 10
3 | O=C(Nc1ccc(OC(F)(F)F)cc1)N1CCN(c2ncnc3[nH]c(-c4ccc(F)cc4)cc23)CC1 [P-0133, 4-[6-(4-fluorophenyl)-7H-pyrrolo[2,3-d]pyrimidin-4-yl]-N-[4-(trifluoromethoxy)phenyl]piperazine-1-carboxamide] | 0.0001 to 1 | 1 to 10
4 | O=C(Nc1ccc(OC(F)(F)F)cc1)N1CCN(c2ncnc3[nH]c(-c4ccc(Cl)cc4)cc23)CC1 [P-0134, 4-[6-(4-chlorophenyl)-7H-pyrrolo[2,3-d]pyrimidin-4-yl]-N-[4-(trifluoromethoxy)phenyl]piperazine-1-carboxamide] | 0.0001 to 1 | 1 to 10
5 | O=C(NCc1ccc(F)cc1)N1CCN(c2ncnc3[nH]cc(CC4CC4)c23)CC1 [P-0137, 4-[5-(cyclopropylmethyl)-7H-pyrrolo[2,3-d]pyrimidin-4-yl]-N-[(4-fluorophenyl)methyl]piperazine-1-carboxamide] | 10 to 200 | 1 to 10
6 | COc1cccc([C@H](C)NC(=O)N2CCN(c3ncnc4[nH]c(-c5ccc(F)cc5)cc34)CC2)c1 [P-0144, 4-[6-(4-fluorophenyl)-7H-pyrrolo[2,3-d]pyrimidin-4-yl]-N-[(1S)-1-(3-methoxyphenyl)ethyl]piperazine-1-carboxamide] | 1 to 10 | 0.0001 to 1
7 | COc1cccc([C@@H](C)NC(=O)N2CCN(c3ncnc4[nH]c(-c5ccc(F)cc5)cc34)CC2)c1 [P-0149, 4-[6-(4-fluorophenyl)-7H-pyrrolo[2,3-d]pyrimidin-4-yl]-N-[(1R)-1-(3-methoxyphenyl)ethyl]piperazine-1-carboxamide] | 10 to 200 | 10 to 200
8 | N#Cc1cc2c(N3CCN(C(=O)NCc4ccc(F)cc4)CC3)ncnc2[nH]1 [P-0150, 4-(6-cyano-7H-pyrrolo[2,3-d]pyrimidin-4-yl)-N-[(4-fluorophenyl)rnethyl]piperazine-1-carboxamide] | 10 to 200 | 10 to 200
9 | Cc1nc(-c2cccc(NC(=O)N3CCN(c4ncnc5[nH]ccc45)CC3)c2)no1 [P-0151, N-[3-(5-methyl-1,2,4-oxadiazol-3-yl)phenyl]-4-(7H-pyrrolo[2,3-d]pyrimidin-4-yl)piperazine-1-carboxamide] | 10 to 200 | 10 to 200
10 | O=C(NCc1ccccc1Cl)N1CCN(c2ncnc3[nH]c(-c4ccc(F)cc4)cc23)CC1 [P-0154, N-[(2-chlorophenyl)methyl]-4-[6-(4-fluorophenyl)-7H-pyrrolo[2,3-d]pyrimidin-4-yl]piperazine-1-carboxamide] | 10 to 200 | 1 to 10
11 | C[C@H](NC(=O)N1CCN(c2ncnc3[nH]c(-c4ccc(F)cc4)cc23)CC1)c1cccc2ccccc12 [P-0155, 4-[6-(4-fluorophenyl)-7H-pyrrolo[2,3-d]pyrimidin-4-yl]-N-[(1S)-1-(1-naphthyl)ethyl]piperazine-1-carboxamide] | 1 to 10 | 0.0001 to 1
12 | COc1ccc(CNC(=O)N2CCN(c3ncnc4[nH]c(-c5ccc(F)cc5)cc34)CC2)cc1 [P-0157, 4-[6-(4-fluorophenyl)-7H-pyrrolo[2,3-d]pyrimidin-4-yl]-N-[(4-methoxyphenyl)methyl]piperazine-1-carboxamide] | 10 to 200 | 10 to 200
13 | O=C(Nc1ccc(F)c(Cl)c1)N1CCN(c2ncnc3[nH]ccc23)CC1 [P-0165, N-(3-chloro-4-fluoro-phenyl)-4-(7H-pyrrolo[2,3-d]pyrimidin-4-yl)piperazine-1-carboxamide] | 1 to 10 | 10 to 200
14 | O=C(Nc1cccc(C(F)(F)F)c1)N1CCN(c2ncnc3[nH]ccc23)CC1 [P-0167, 4-(7H-pyrrolo[2,3-d]pyrimidin-4-yl)-N-[3-(trifluoromethyl)phenyl]piperazine-1-carboxamide] | 10 to 200 | 10 to 200
15 | O=C(Nc1cccc(Cl)c1)N1CCN(c2ncnc3[nH]ccc23)CC1 [P-0168, N-(3-chlorophenyl)-4-(7H-pyrrolo[2,3-d]pyrimidin-4-yl)piperazine-1-carboxamide] | 10 to 200 | 10 to 200
16 | COc1ccc(CCNC(=O)N2CCN(c3ncnc4[nH]ccc34)CC2)cc1 [P-0169, N-[2-(4-methoxyphenyl)ethyl]-4-(7H-pyrrolo[2,3-d]pyrimidin-4-yl)piperazine-1-carboxamide] | 10 to 200 | 10 to 200

Row | Structure (SMILES) | IC50 (c-kit kinase) [µM] | IC50 (c-kit mutant D816V) [µM]
17 | O=C(NCc1ccc(Cl)cc1)N1CCN(c2ncnc3[nH]ccc23)CC1 [P-0170, N-[(4-chlorophenyl)methyl]-4-(7H-pyrrolo[2,3-d]pyrimidin-4-yl)piperazine-1-carboxamide] | 1 to 10 | 10 to 200
18 | O=C(Nc1ccc(Cl)cc1)N1CCN(c2ncnc3[nH]ccc23)CC1 [P-0171, N-(4-chlorophenyl)-4-(7H-pyrrolo[2,3-d]pyrimidin-4-yl)piperazine-1-carboxamide] | 10 to 200 | 10 to 200
19 | O=C(NC1CCCC1)N1CCN(c2ncnc3[nH]ccc23)CC1 [P-0177, N-cyclopentyl-4-(7H-pyrrolo[2,3-d]pyrimidin-4-yl)piperazine-1-carboxamide] | 10 to 200 | 0.0001 to 1
20 | CCOc1ccc(NC(=O)N2CCN(c3ncnc4[nH]c(C)cc34)CC2)cc1 [P-0181, N-(4-ethoxyphenyl)-4-(6-methyl-7H-pyrrolo[2,3-d]pyrimidin-4-yl)piperazine-1-carboxamide] | 10 to 200 | 10 to 200
21 | O=C(NCc1ccc(F)cc1)N1CCN(c2ncnc3[nH]ccc23)CC1 [P-0182, N-[(4-fluorophenyl)methyl]-4-(7H-pyrrolo[2,3-d]pyrimidin-4-yl)piperazine-1-carboxamide] | 10 to 200 | 10 to 200
22 | O=C(Nc1ccc(F)cc1)N1CCN(c2ncnc3[nH]ccc23)CC1 [P-0183, N-(4-fluorophenyl)-4-(7H-pyrrolo[2,3-d]pyrimidin-4-yl)piperazine-1-carboxamide] | 1 to 10 | 10 to 200
23 | C[C@H](NC(=O)N1CCN(c2ncnc3[nH]c(-c4ccc(Cl)cc4)cc23)CC1)c1ccc(Cl)cc1 [P-0188, N-[(1S)-1-(4-chlorophenyl)ethyl]-4-[6-(4-chlorophenyl)-7H-pyrrolo[2,3-d]pyrimidin-4-yl]piperazine-1-carboxamide] | 1 to 10 | 0.0001 to 1
24 | O=C(NCc1ccc(Cl)cc1)N1CCN(c2ncnc3[nH]c(-c4ccc(Cl)cc4)cc23)CC1 [P-0212, N-[(4-chlorophenyl)methyl]-4-[6-(4-chlorophenyl)-7H-pyrrolo[2,3-d]pyrimidin-4-yl]piperazine-1-carboxamide] | 1 to 10 | 0.0001 to 1
25 | O=C(NCc1ccc(F)cc1)N1CCN(c2ncnc3[nH]c(-c4ccc(Cl)cc4)cc23)CC1 [P-0213, 4-[6-(4-chlorophenyl)-7H-pyrrolo[2,3-d]pyrimidin-4-yl]-N-[(4-fluorophenyl)methyl]piperazine-1-carboxamide] | 10 to 200 | 10 to 200
26 | CCOc1ccc(NC(=O)N2CCN(c3ncnc4[nH]c(-c5ccc(Cl)cc5)cc34)CC2)cc1 [P-0214, 4-[6-(4-chlorophenyl)-7H-pyrrolo[2,3-d]pyrimidin-4-yl]-N-(4-ethoxyphenyl)piperazine-1-carboxamide] | 0.0001 to 1 | 0.0001 to 1
27 | O=C(NCc1ccc(Cl)cc1)N1CCN(c2ncnc3[nH]c(-c4ccccc4)cc23)CC1 [P-0215, N-[(4-chlorophenyl)methyl]-4-(6-phenyl-7H-pyrrolo[2,3-d]pyrimidin-4-yl)piperazine-1-carboxamide] | 10 to 200 | 10 to 200
28 | COc1ccc(S(=O)(=O)N2CCN(c3ncnc4[nH]ccc34)CC2)cc1 [P-0217, 4-[4-(4-methoxyphenyl)sulfonylpiperazin-1-yl]-7H-pyrrolo[2,3-d]pyrimidine] | 1 to 10 | 10 to 200
29 | CCCNC(=O)N1CCN(c2ncnc3[nH]c(-c4cccnc4)cc23)CC1 [P-0218, N-propyl-4-[6-(3-pyridyl)-7H-pyrrolo[2,3-d]pyrimidin-4-yl]piperazine-1-carboxamide] | 10 to 200 | 1 to 10
30 | O=C(Nc1ccccc1Cl)N1CCN(c2ncnc3[nH]c(-c4cccnc4)cc23)CC1 [P-0219, N-(2-chlorophenyl)-4-[6-(3-pyridyl)-7H-pyrrolo[2,3-d]pyrimidin-4-yl]piperazine-1-carboxamide] | 10 to 200 | 1 to 10
31 | O=C(Nc1ccccc1Cl)N1CCN(c2ncnc3[nH]c(-c4cccnc4)cc23)CC1 [P-0220, N-(2-chlorophenyl)-4-[6-(3-pyridyl)-7H-pyrrolo[2,3-d]pyrimidin-4-yl]piperazine-1-carboxamide] | 0.0001 to 1 | 0.0001 to 1
32 | CCOc1cccc(NC(=O)N2CCN(c3ncnc4[nH]c(-c5cccnc5)cc34)CC2)c1 [P-0221, N-(3-ethoxyphenyl)-4-[6-(3-pyridyl)-7H-pyrrolo[2,3-d]pyrimidin-4-yl]piperazine-1-carboxamide] | 1 to 10 | 0.0001 to 1
